# Results published in ChEMBL document CHEMBL1201862, “PubChem BioAssay data set” (2004).
#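 In this assay, cells in 96-well plates receive the compound at five concentrations for 48 hours. Endpoints are linearly interpolated between the surrounding concentrations. Here, GI50 denotes the concentration required for 50% inhibition of growth.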 Active and inactive are the calls of the source. No stated cut-off is given here; in the data, active = GI50 up to about 1.1 µM and inactive = higher.
# How the values were obtained:
# Assay in all cases: growth of human tumour cells (NCI), 48 h
# [1] = test system: RXF 393
# [2] = test system: DMS-114
# [3] = test system: SF-295
# [4] = test system: A549
# [5] = test system: TK-10
# [6] = test system: HL-60
# [7] = test system: SF-539
# [8] = test system: SK-MEL-2
# [9] = test system: UACC-62
# [10] = test system: IGROV-1
# [11] = test system: 786-0
# [12] = test system: HOP-18
# [13] = test system: SW-620
# [14] = test system: NCI-H460
# [15] = test system: SNB-78
# [16] = test system: HOP-62
# [17] = test system: SF-268
# [18] = test system: DMS-273
# [19] = test system: SR
# [20] = test system: COLO 205
# [21] = test system: DLD-1
# [22] = test system: Malme-3M
# [23] = test system: UACC-257
# [24] = test system: UO-31
# [25] = test system: SK-OV-3
# [26] = test system: M19-MEL
# [27] = test system: K562
# [28] = test system: U-251
# [29] = test system: CCRF-CEM
# [30] = test system: KM-20L2
# [31] = test system: OVCAR-8
# [32] = test system: SK-MEL-28
# [33] = test system: KM12
# [34] = test system: HT-29
# [35] = test system: CAKI-1
# [36] = test system: NCI-H522
# [37] = test system: M14
# [38] = test system: OVCAR-5
# [39] = test system: HCT-15
# [40] = test system: NCI-H226
# [41] = test system: OVCAR-4
# [42] = test system: MOLT-4
# [43] = test system: SNB-19
# [44] = test system: HOP-92
# [45] = test system: LXFL 529
# [46] = test system: XF498
# [47] = test system: RPMI-8226
# [48] = test system: SNB-75
# [49] = test system: SN12C
# [50] = test system: LOX IMVI
# [51] = test system: SK-MEL-5
# [52] = test system: ACHN
# [53] = test system: NCI-H23
# [54] = test system: HCT-116
# [55] = test system: OVCAR-3
# [56] = test system: A498
# [57] = test system: EKVX
# [58] = test system: HCC 2998
structure (smiles),measurement,setting,value
O=C(c1ccco1)N(C(=S)N1CCN(c2ccccn2)CC1)c1ccccc1,GI50,[1],> 100 µM (inactive)
same,GI50,[2],66.1 µM (inactive)
same,GI50,[3],> 100 µM (inactive)
same,GI50,[4],> 100 µM (inactive)
same,GI50,[5],> 100 µM (inactive)
same,GI50,[6],> 100 µM (inactive)
same,GI50,[7],> 100 µM (inactive)
same,GI50,[8],> 100 µM (inactive)
same,GI50,[9],> 100 µM (inactive)
same,GI50,[10],> 100 µM (inactive)
same,GI50,[11],> 100 µM (inactive)
same,GI50,[12],> 100 µM (inactive)
same,GI50,[13],> 100 µM (inactive)
same,GI50,[14],> 100 µM (inactive)
same,GI50,[15],> 100 µM (inactive)
same,GI50,[16],> 100 µM (inactive)
same,GI50,[17],> 100 µM (inactive)
same,GI50,[18],> 100 µM (inactive)
same,GI50,[19],> 100 µM (inactive)
same,GI50,[20],> 100 µM (inactive)
same,GI50,[21],> 100 µM (inactive)
same,GI50,[22],> 100 µM (inactive)
same,GI50,[23],> 100 µM (inactive)
same,GI50,[24],88.7 µM (inactive)
same,GI50,[25],> 100 µM (inactive)
same,GI50,[26],> 100 µM (inactive)
same,GI50,[27],> 100 µM (inactive)
same,GI50,[28],> 100 µM (inactive)
same,GI50,[29],> 100 µM (inactive)
same,GI50,[30],> 100 µM (inactive)
same,GI50,[31],> 100 µM (inactive)
same,GI50,[32],> 100 µM (inactive)
same,GI50,[33],> 100 µM (inactive)
same,GI50,[34],> 100 µM (inactive)
same,GI50,[35],> 100 µM (inactive)
same,GI50,[36],> 100 µM (inactive)
same,GI50,[37],> 100 µM (inactive)
same,GI50,[38],> 100 µM (inactive)
same,GI50,[39],> 100 µM
same,GI50,[40],18.7 µM (inactive)
same,GI50,[41],> 100 µM (inactive)
same,GI50,[42],> 100 µM (inactive)
same,GI50,[43],> 100 µM (inactive)
same,GI50,[44],> 100 µM (inactive)
same,GI50,[45],> 100 µM (inactive)
same,GI50,[46],60.7 µM (inactive)
same,GI50,[47],> 100 µM (inactive)
same,GI50,[48],> 100 µM (inactive)
same,GI50,[49],> 100 µM (inactive)
same,GI50,[50],> 100 µM (inactive)
same,GI50,[51],> 100 µM (inactive)
same,GI50,[52],> 100 µM (inactive)
same,GI50,[53],> 100 µM (inactive)
same,GI50,[54],> 100 µM (inactive)
same,GI50,[55],> 100 µM (inactive)
NC1=NN(c2ccccc2)C(=O)C1C(=O)C(=O)Nc1ccccc1 (centres undefined),GI50,[2],> 100 µM (inactive)
same,GI50,[3],> 100 µM (inactive)
same,GI50,[4],> 100 µM (inactive)
same,GI50,[5],> 100 µM (inactive)
same,GI50,[6],> 100 µM (inactive)
same,GI50,[7],> 100 µM (inactive)
same,GI50,[8],> 100 µM (inactive)
same,GI50,[9],> 100 µM (inactive)
same,GI50,[10],> 100 µM (inactive)
same,GI50,[11],> 100 µM (inactive)
same,GI50,[12],> 100 µM (inactive)
same,GI50,[56],> 100 µM (inactive)
same,GI50,[13],> 100 µM (inactive)
same,GI50,[14],> 100 µM (inactive)
same,GI50,[15],> 100 µM (inactive)
same,GI50,[16],> 100 µM (inactive)
same,GI50,[17],> 100 µM (inactive)
same,GI50,[18],> 100 µM (inactive)
same,GI50,[20],> 100 µM (inactive)
same,GI50,[21],> 100 µM (inactive)
same,GI50,[22],> 100 µM (inactive)
same,GI50,[23],> 100 µM (inactive)
same,GI50,[24],> 100 µM (inactive)
same,GI50,[25],> 100 µM (inactive)
same,GI50,[26],> 100 µM (inactive)
same,GI50,[27],> 100 µM (inactive)
same,GI50,[28],> 100 µM (inactive)
same,GI50,[29],> 100 µM (inactive)
same,GI50,[30],> 100 µM (inactive)
same,GI50,[31],> 100 µM (inactive)
same,GI50,[33],> 100 µM (inactive)
same,GI50,[34],> 100 µM (inactive)
same,GI50,[35],> 100 µM (inactive)
same,GI50,[36],> 100 µM (inactive)
same,GI50,[37],> 100 µM (inactive)
same,GI50,[38],> 100 µM (inactive)
same,GI50,[39],> 100 µM
same,GI50,[40],> 100 µM (inactive)
same,GI50,[41],> 100 µM (inactive)
same,GI50,[42],> 100 µM (inactive)
same,GI50,[43],> 100 µM (inactive)
same,GI50,[44],> 100 µM (inactive)
same,GI50,[45],> 100 µM (inactive)
same,GI50,[46],> 100 µM (inactive)
same,GI50,[47],> 100 µM (inactive)
same,GI50,[49],> 100 µM (inactive)
same,GI50,[50],> 100 µM (inactive)
same,GI50,[51],> 100 µM (inactive)
same,GI50,[52],> 100 µM (inactive)
same,GI50,[53],> 100 µM (inactive)
same,GI50,[54],> 100 µM (inactive)
same,GI50,[55],> 100 µM (inactive)
same,GI50,[57],> 100 µM (inactive)
same,GI50,[58],> 100 µM (inactive)
